Some results are limits rather than exact numbers.

The text below walks through data of ChEMBL document CHEMBL4382259, “Synthesis of novel guttiferone E and xanthochymol derivatives with cytotoxicities by inducing cell apoptosis and arresting the cell cycle phase” (Eur J Med Chem, 2019).

Assay type in all cases: functional, cell-based
Experiment [1] has as its system HEL. Kind of experiment: Antiproliferative activity against HEL cells after 72 hrs by MTT assay. The settings on record: Homo sapiens. Background: Tetrazolium assays rely on reduction of a dye to a coloured formazan, in cell work by metabolically active cells.
The subject of experiment [2] is K562. Kind of experiment: Antiproliferative activity against human K562 cells after 72 hrs by MTT assay. The conditions noted are these: K562, 72 h.
Experiment [3] has as its system HeLa. The experiment in a line: Antiproliferative activity against human HeLa cells after 72 hrs by MTT assay.
The subject of experiment [4] is MCF7. The experiment in a line: Antiproliferative activity against human MCF7 cells after 72 hrs by MTT assay. The settings on record: MCF7, 72 h.
For experiment [5], the system named is A549. Kind of experiment: Antiproliferative activity against human A549 cells after 72 hrs by MTT assay. The conditions noted are these: A549, 72 h.

The IC50 is the concentration needed to halve the response being measured. A lower IC50 goes with greater potency in that assay. As for `CC(C)=CCOc1ccc(C(=O)C2=C3OC(C)(C)[C@@H](CC=C(C)C)C[C@@]34C[C@@H](CC=C(C)C)C(C)(C)[C@@](CC=C(C)C)(C2=O)C4=O)cc1OCC=C(C)C`, the IC50 in experiment [1] is above 20 µM; in experiment [2] it was above 20 µM; in experiment [3] it was above 20 µM; in experiment [4], above 20 µM; in experiment [5], 17.2 µM.

With `C#CCOc1ccc(C(=O)C2=C3OC(C)(C)[C@@H](CC=C(C)C)C[C@@]34C[C@@H](CC=C(C)C)C(C)(C)[C@@](CC=C(C)C)(C2=O)C4=O)cc1O`, the concentration for half-maximal inhibition (IC50) in experiment [1], in experiment [2], in experiment [3], in experiment [4] and in experiment [5] was above 20 µM throughout.

With `CC(C)=CC[C@H]1C[C@@]23C[C@@H](CC=C(C)C)C(C)(C)[C@@](CC=C(C)C)(C(=O)C(C(=O)c4ccc(O)c(O)c4)=C2OC1(C)C)C3=O` [CAMBOGIN], the IC50 in experiment [1] was determined as 9.24 µM; in experiment [2] it was 14.1 µM; in experiment [3] it was 16.5 µM; in experiment [4], 10.2 µM; in experiment [5], 19.2 µM.

For the molecule `CC(C)=CCOc1ccc(C(=O)C2=C3OC(C)(C)[C@@H](CC=C(C)C)C[C@@]34C[C@@H](CC=C(C)C)C(C)(C)[C@@](CC=C(C)C)(C2=O)C4=O)cc1O`, the half-inhibitory concentration (IC50) in experiment [1] is above 20 µM; in experiment [2], above 20 µM; in experiment [3], 12.2 µM; in experiment [4], 18.6 µM; in experiment [5], above 20 µM.

For `CC(C)=CC[C@H]1C[C@@]23C[C@@H](CC=C(C)C)C(C)(C)[C@@](CC=C(C)C)(C(=O)C(C(=O)c4ccc(OC(=O)c5cccs5)c(OC(=O)c5cccs5)c4)=C2OC1(C)C)C3=O`, the half-maximal inhibitory concentration (IC50) was above 20 µM in experiment [1]; above 20 µM in experiment [2]; 8.8 µM in experiment [3]; 16.5 µM in experiment [4]; 20 µM in experiment [5].

As to `CC(C)=CC[C@H]1C[C@]23C[C@@H](CC=C(C)C)C(C)(C)[C@H]4CCC(C)(C)O[C@]42OC(=O)C(C(=O)c2ccc(OC(=O)c4ccc(F)cc4)c(OC(=O)c4ccc(F)cc4)c2)=C3OC1(C)C`, the IC50 was above 20 µM in experiment [1]; above 20 µM in experiment [2]; 11.9 µM in experiment [3]; 16.8 µM in experiment [4]; 11.7 µM in experiment [5].

In the case of `CC(=O)Oc1ccc(C(=O)C2=C3OC(C)(C)[C@@H](CC=C(C)C)C[C@@]34C[C@@H](CC=C(C)C)C(C)(C)[C@H]3CCC(C)(C)O[C@]34OC2=O)cc1OC(C)=O`, the 50% inhibitory concentration (IC50) is above 20 µM in experiment [1]; above 20 µM in experiment [2]; 5.32 µM in experiment [3]; 4.83 µM in experiment [4]; 12.3 µM in experiment [5].

For the molecule `COc1ccc(C(=O)Oc2ccc(C(=O)C3=C4OC(C)(C)[C@@H](CC=C(C)C)C[C@@]45C[C@@H](CC=C(C)C)C(C)(C)[C@H]4CCC(C)(C)O[C@]45OC3=O)cc2OC(=O)c2ccc(OC)cc2)cc1`, the half-maximal inhibitory concentration (IC50) in experiment [1], in experiment [2], in experiment [3], in experiment [4] and in experiment [5] was above 20 µM in each case.

Consider `CC(C)=CC[C@H]1C[C@@]23C[C@@H](CC=C(C)C)C(C)(C)[C@@](CC=C(C)C)(C(=O)C(C(=O)c4ccc(OCCCCCN5CCOCC5)c(O)c4)=C2OC1(C)C)C3=O`, for which the IC50 was above 20 µM in experiment [1]; above 20 µM in experiment [2]; above 20 µM in experiment [3]; 16 µM in experiment [4]; above 20 µM in experiment [5].

Turning to `CCCCCCCC(=O)Oc1ccc(C(=O)C2=C3OC(C)(C)[C@@H](CC=C(C)C)C[C@@]34C[C@@H](CC=C(C)C)C(C)(C)[C@H]3CCC(C)(C)O[C@]34OC2=O)cc1OC(=O)CCCCCCC`, the IC50 in experiment [1], in experiment [2], in experiment [3], in experiment [4] and in experiment [5] was above 20 µM each time.

Regarding `CCC(=O)Oc1cc(C(=O)C2=C3OC(C)(C)[C@@H](CC=C(C)C)C[C@@]34C[C@@H](CC=C(C)C)C(C)(C)[C@H]3CCC(C)(C)O[C@]34OC2=O)ccc1O`, the IC50 is 9.71 µM in experiment [1], 12.1 µM in experiment [2], above 20 µM in experiment [3] and above 20 µM in experiment [4].
